Usually IC50 stands for the concentration that gives 50% inhibition.

Type in all cases: functional, cell-based
Experiment [1] deals with MIA PaCa-2. Kind of experiment: Cytotoxicity against human MIAPaCa2 cells after 48 hrs by MTT assay. The note with it: MIA PaCa-2, 48 h. A general note: Formazan colour is commonly taken as a measure of viable cells.
The test system of experiment [2] is MCF7. Kind of experiment: Cytotoxicity against human MCF7 cells after 48 hrs by MTT assay. The note with it: MCF7, 48 h.
Experiment [3] deals with DU-145. In words: Cytotoxicity against human DU145 cells after 48 hrs by MTT assay. The conditions noted are these: DU-145, 48 h.
The subject of experiment [4] is PC-3. Kind of experiment: Cytotoxicity against human PC3 cells after 48 hrs by MTT assay. The conditions noted are these: PC-3, 48 h.
The subject of experiment [5] is MDA-MB-231. Kind of experiment: Cytotoxicity against human MDA-MB-231 cells after 48 hrs by MTT assay. The note with it: MDA-MB-231, 48 h.
The subject of experiment [6] is LNCaP. In words: Cytotoxicity against human LNCAP cells after 48 hrs by MTT assay.

Consider `COc1ccc(-c2nc(-c3ccc(OC)c(OC4CCCC4)c3)no2)cc1`, for which the IC50 was 420 µM in experiment [1]; greater than 1000 µM in experiment [2]; 414 µM in experiment [3]; 408 µM in experiment [4]; 77.7 µM in experiment [5]; 843 µM in experiment [6].
Regarding `COc1ccc(-c2nc(-c3ccc(OC)c(OC4CCCC4)c3)no2)cc1OC`, the IC50 in experiment [1] was 404 µM; in experiment [2], greater than 1000 µM; in experiment [3] it was 422 µM; in experiment [4], 171 µM; in experiment [5] it was 236 µM; in experiment [6], 816 µM.
On to `COc1ccc(-c2nc(-c3cc(OC)c(OC)c(OC)c3)no2)cc1`, for which the IC50 is 43.5 µM in experiment [1]; greater than 1000 µM in experiment [2]; 100 µM in experiment [3]; 214 µM in experiment [4]; 768 µM in experiment [5]; 327 µM in experiment [6].
As to `COc1ccc(-c2nc(-c3cc(OC)c(OC)c(OC)c3)no2)cc1OC`, the IC50 in experiment [1] is greater than 1000 µM; in experiment [2], greater than 1000 µM; in experiment [3], greater than 1000 µM; in experiment [4] it was greater than 1000 µM; in experiment [5], 475 µM; in experiment [6], greater than 1000 µM.
Consider `COc1cc(-c2noc(-c3cc(OC)c(OC)c(OC)c3)n2)cc(OC)c1OC`, for which the concentration for half-maximal inhibition (IC50) in experiment [1] is greater than 1000 µM; in experiment [2], greater than 1000 µM; in experiment [3], 576 µM; in experiment [4], 698 µM; in experiment [5] it was 261 µM; in experiment [6], 407 µM.
On to `COc1ccc(-c2noc(C3CCNCC3)n2)cc1OC`, for which the IC50 in experiment [1] was found to be 147 µM; in experiment [2], 27 µM; in experiment [3] it was 108 µM; in experiment [4], 315 µM; in experiment [5], 122 µM; in experiment [6], 38.8 µM.
With `CCOc1cc(-c2noc(C3CCNCC3)n2)ccc1OC`, the IC50 came out at 112 µM in experiment [1]; 173 µM in experiment [2]; 167 µM in experiment [3]; 166 µM in experiment [4]; 184 µM in experiment [5]; 154 µM in experiment [6].
As for `CCCCOc1cc(-c2noc(C3CCNCC3)n2)ccc1OC`, the half-inhibitory concentration (IC50) in experiment [1] came out at 18.5 µM; in experiment [2], 15.7 µM; in experiment [3], 17 µM; in experiment [4], 35.8 µM; in experiment [5] it was 23.8 µM; in experiment [6], 32.5 µM.
As to `COc1cc(-c2noc(C3CCNCC3)n2)ccc1OC1CCCC1`, the IC50 in experiment [1] came to 13 µM; in experiment [2] it was 29 µM; in experiment [3] it was 30 µM; in experiment [4], 11.7 µM; in experiment [5], 28.5 µM; in experiment [6], 42.2 µM.
In the case of `COc1cc(-c2noc(C3CCNCC3)n2)cc(OC)c1OC`, the IC50 in experiment [1] was 80.1 µM; in experiment [2] it was 324 µM; in experiment [3] it was 112 µM; in experiment [4] it was 176 µM; in experiment [5], 123 µM; in experiment [6], 120 µM.
On to `CCOC(=O)N1CCC(c2nc(-c3ccc(OC)c(OC4CCCC4)c3)no2)CC1`, for which the IC50 in experiment [1] turned out to be 24 µM; in experiment [2], 27 µM; in experiment [3], 29.3 µM; in experiment [4] it was 80 µM; in experiment [5] it was 36.8 µM; in experiment [6] it was 58.7 µM.
In the case of `COc1ccc(-c2noc(C3CCN(S(C)(=O)=O)CC3)n2)cc1OC1CCCC1`, the IC50 in experiment [1] was determined as 144 µM; in experiment [2] it was 113 µM; in experiment [3], 134 µM; in experiment [4], 159 µM; in experiment [5], 109 µM; in experiment [6], 149 µM.
With `COc1ccc(-c2nnc(C3CCNCC3)o2)cc1OC1CCCC1`, the IC50 in experiment [1] is 331 µM; in experiment [2] it was 129 µM; in experiment [3], 146 µM; in experiment [4] it was greater than 1000 µM; in experiment [5] it was 38.3 µM; in experiment [6], 308 µM.
As for `COc1ccc(-c2nnc(C3CCNCC3)s2)cc1OC1CCCC1`, the IC50 in experiment [1] was 10.2 µM; in experiment [2] it was 17.6 µM; in experiment [3], 19.6 µM; in experiment [4], 12.9 µM; in experiment [5], 9.2 µM; in experiment [6] it was 19.2 µM.
As to `COc1ccc(-c2noc(C3CCCCC3)n2)cc1OC1CCCC1`, the IC50 in experiment [1] turned out to be 64.5 µM; in experiment [2], 57.3 µM; in experiment [3] it was 108 µM; in experiment [4] it was 80.3 µM; in experiment [5], 138 µM; in experiment [6], 92.6 µM.
Regarding `COc1ccc(-c2noc(C3CCCC3)n2)cc1OC1CCCC1`, the IC50 in experiment [1] came to 99.2 µM; in experiment [2], 62.3 µM; in experiment [3], 106 µM; in experiment [4], 194 µM; in experiment [5], 87.5 µM; in experiment [6], 138 µM.
Take `COc1ccc(-c2noc(C3CCN(C(=O)OC(C)(C)C)CC3)n2)cc1OC`: the IC50 in experiment [1] was 32.5 µM; in experiment [2] it was 52.2 µM; in experiment [3], 158 µM; in experiment [4], 108 µM; in experiment [5] it was 129 µM; in experiment [6], 85.6 µM.
Take `CCOc1cc(-c2noc(C3CCN(C(=O)OC(C)(C)C)CC3)n2)ccc1OC`: the IC50 was 91.1 µM in experiment [1]; 93.8 µM in experiment [2]; 156 µM in experiment [3]; 41 µM in experiment [4]; 116 µM in experiment [5]; 96.1 µM in experiment [6].
Take `CCCCOc1cc(-c2noc(C3CCN(C(=O)OC(C)(C)C)CC3)n2)ccc1OC`: the IC50 in experiment [1] is 105 µM; in experiment [2], 91 µM; in experiment [3] it was 102 µM; in experiment [4] it was 130 µM; in experiment [5], 88 µM; in experiment [6], 91 µM.
In the case of `COc1cc(-c2noc(C3CCN(C(=O)OC(C)(C)C)CC3)n2)ccc1OC1CCCC1`, the IC50 in experiment [1] came to 21.5 µM; in experiment [2] it was 38 µM; in experiment [3], 98.6 µM; in experiment [4], 315 µM; in experiment [5], 41 µM; in experiment [6], 106 µM.
On to `COc1cc(-c2noc(C3CCN(C(=O)OC(C)(C)C)CC3)n2)cc(OC)c1OC`, for which the IC50 in experiment [1] came to 106 µM; in experiment [2], 43.6 µM; in experiment [3], 48.4 µM; in experiment [4], 56.9 µM; in experiment [5] it was 13.6 µM; in experiment [6], 48.2 µM.
As for `COc1ccc(-c2noc(C3CCN(C(=O)OC(C)(C)C)CC3)n2)cc1OC1CCCC1`, the IC50 was 23.3 µM in experiment [1]; 60.3 µM in experiment [2]; 120 µM in experiment [3]; 108 µM in experiment [4]; 38.3 µM in experiment [5]; 122 µM in experiment [6].
As to `COc1ccc(-c2noc(C(Cl)(Cl)Cl)n2)cc1OC1CCCC1`, the IC50 in experiment [1] was found to be 14.5 µM; in experiment [2], 47.4 µM; in experiment [3], 9.3 µM; in experiment [4], 15 µM; in experiment [5], 16.1 µM; in experiment [6], 17.8 µM.

The values above are taken from ChEMBL document CHEMBL1795335, “Synthesis of novel 1,2,4-oxadiazoles and analogues as potential anticancer agents” (Eur J Med Chem, 2011).
